Laboratory results published in paper PMC9116245, “New 1,2,3-triazole linked ciprofloxacin-chalcones induce DNA damage by inhibiting human topoisomerase I& II and tubulin polymerization” (Journal of Enzyme Inhibition and Medicinal Chemistry, 2022).

Legend:
CCRF-CEM = experiment: NCI one-dose screen; assay type: cell-based; conditions: Homo sapiens, read-out: Growth Percent
Protocol: (§1) For screening of anticancer properties, all the developed compounds were chosen by the (NCI) for in-vitro antitumor evaluation. The assay was carried out using 59 human cancer cell lines obtained from nine tumour subpanels (breast, ovarian, melanoma, leukaemia, renal, CNS, lung, prostate, and colon cancer cell lines). Compounds were assessed at a 10 µM concentration. […] Also, hybrids 4a, 4b, 4e, 4i and 4j produced significant anti-proliferative effect in several cancer cells, particularly in leukaemia (RPMI-8226) and colon (HCT116) cells with growth percent of 47.87, −14.59, −24.56, −24.42, −15.84, −9.74, −53.36, −10.26, −31.29, and −39.51%, respectively.
(§2) The method description for NCI anticancer screening is provided in detail in the standard NCI-60 testing protocol.

NCI-H460 = experiment: NCI one-dose screen; assay type: cell-based; conditions: Homo sapiens; NCI-H460, 10 µM; read-out: Growth Percent
Protocol: as §1, §2

MOLT-4 = experiment: NCI one-dose screen; assay type: cell-based; conditions: Homo sapiens; MOLT-4, 10 µM; read-out: Growth Percent
Protocol: as §1, §2

SK-MEL-28 = experiment: NCI one-dose screen; assay type: cell-based; conditions: Homo sapiens; SK-MEL-28, 10 µM; read-out: Growth Percent
Protocol: as §1, §2

CAKI-1 = experiment: NCI one-dose screen; assay type: cell-based; conditions: Homo sapiens; CAKI-1, 10 µM; read-out: Growth Percent
Protocol: as §1, §2

SK-MEL-5 = experiment: NCI one-dose screen; assay type: cell-based; conditions: Homo sapiens; SK-MEL-5, 10 µM; read-out: Growth Percent
Protocol: as §1, §2

HOP-62 = experiment: NCI one-dose screen; assay type: cell-based; conditions: Homo sapiens; HOP-62, 10 µM; read-out: Growth Percent
Protocol: as §1, §2

A549/ATCC = experiment: NCI one-dose screen; assay type: cell-based; conditions: Homo sapiens, read-out: Growth Percent
Protocol: as §1, §2

SF-539 = experiment: NCI one-dose screen; assay type: cell-based; conditions: Homo sapiens; SF-539, 10 µM; read-out: Growth Percent
Protocol: as §1, §2

SR = experiment: NCI one-dose screen; assay type: cell-based; conditions: Homo sapiens, read-out: Growth Percent
Protocol: as §1, §2

BT-549 = experiment: NCI one-dose screen; assay type: cell-based; conditions: Homo sapiens; BT-549, 10 µM; read-out: Growth Percent
Protocol: as §1, §2

SNB-75 = experiment: NCI one-dose screen; assay type: cell-based; conditions: Homo sapiens; SNB-75, 10 µM; read-out: Growth Percent
Protocol: as §1, §2

MALME-3M = experiment: NCI one-dose screen; assay type: cell-based; conditions: Homo sapiens, read-out: Growth Percent
Protocol: as §1, §2

HCT-15 = experiment: NCI one-dose screen; assay type: cell-based; conditions: Homo sapiens; HCT-15, 10 µM; read-out: Growth Percent
Protocol: as §1, §2

IGROV1 = experiment: NCI one-dose screen; assay type: cell-based; conditions: Homo sapiens, IGROV-1; IGROV1, 10 µM; read-out: Growth Percent
Protocol: as §1, §2

NCI/ADR-RES = experiment: NCI one-dose screen; assay type: cell-based; conditions: Homo sapiens, read-out: Growth Percent
Protocol: as §1, §2

ACHN = experiment: NCI one-dose screen; assay type: cell-based; conditions: Homo sapiens, read-out: Growth Percent
Protocol: as §1, §2

MDA-MB-231/ATCC = experiment: NCI one-dose screen; assay type: cell-based; conditions: Homo sapiens, read-out: Growth Percent
Protocol: as §1, §2

KM12 = experiment: NCI one-dose screen; assay type: cell-based; conditions: Homo sapiens; KM12, 10 µM; read-out: Growth Percent
Protocol: as §1, §2

NCI-H226 = experiment: NCI one-dose screen; assay type: cell-based; conditions: Homo sapiens; NCI-H226, 10 µM; read-out: Growth Percent
Protocol: as §1, §2

SK-MEL-2 = experiment: NCI one-dose screen; assay type: cell-based; conditions: Homo sapiens; SK-MEL-2, 10 µM; read-out: Growth Percent
Protocol: as §1, §2

SF-295 = experiment: NCI one-dose screen; assay type: cell-based; conditions: Homo sapiens; SF-295, 10 µM; read-out: Growth Percent
Protocol: as §1, §2

UO-31 = experiment: NCI one-dose screen; assay type: cell-based; conditions: Homo sapiens; UO-31, 10 µM; read-out: Growth Percent
Protocol: as §1, §2

M14 = experiment: NCI one-dose screen; assay type: cell-based; conditions: Homo sapiens; M14, 10 µM; read-out: Growth Percent
Protocol: as §1, §2

SK-OV-3 = experiment: NCI one-dose screen; assay type: cell-based; conditions: Homo sapiens; SK-OV-3, 10 µM; read-out: Growth Percent
Protocol: as §1, §2

HOP-92 = experiment: NCI one-dose screen; assay type: cell-based; conditions: Homo sapiens; HOP-92, 10 µM; read-out: Growth Percent
Protocol: as §1, §2

OVCAR-3 = experiment: NCI one-dose screen; assay type: cell-based; conditions: Homo sapiens; OVCAR-3, 10 µM; read-out: Growth Percent
Protocol: as §1, §2

TK-10 = experiment: NCI one-dose screen; assay type: cell-based; conditions: Homo sapiens; TK-10, 10 µM; read-out: Growth Percent
Protocol: as §1, §2

MCF7 = experiment: NCI one-dose screen; assay type: cell-based; conditions: Homo sapiens; MCF7, 10 µM; read-out: Growth Percent
Protocol: as §1, §2

T-47D = experiment: NCI one-dose screen; assay type: cell-based; conditions: Homo sapiens, T47D, read-out: Growth Percent
Protocol: as §1, §2

[1] = system: 59 human cancer cell lines; experiment: NCI one-dose screen, whole panel; assay type: cell-based; conditions: for activity at 10 µM: Homo sapiens, mean over the panel, read-out: Mean Growth Percent
Protocol: as §1, §2

HCT116 = experiment: MTT assay; assay type: cell-based; conditions: Homo sapiens, HCT-116, 24 h incubation
Protocol: (§3) The proliferation of colorectal cancer cells (HCT116, HT29 and Caco-2) was assessed using MTT assay as previously reported. Cells were treated with increasing concentrations of 1, 5, 10, 20, 40, 80 or 100 µM of CP hybrids 4a-j, doxorubicin, or DMSO. See Supplementary Appendix A.

Caco-2 = experiment: MTT assay; assay type: cell-based; conditions: Homo sapiens; Caco-2, MTT assay, 24 h incubation
Protocol: as §3

HT-29 = experiment: MTT assay; assay type: cell-based; conditions: Homo sapiens; HT-29, MTT assay, 24 h incubation
Protocol: as §3

RPMI-8226 = experiment: NCI one-dose screen; assay type: cell-based, human; conditions: RPMI-8226, 10 µM; for activity at 10 µM: Homo sapiens, read-out: Growth Percent
Protocol: as §1, §2

HCT-116 = experiment: NCI one-dose screen; assay type: cell-based, human; conditions: HCT-116, 10 µM; for activity at 10 µM: Homo sapiens, read-out: Growth Percent
Protocol: as §1, §2

Row | SMILES | activity at 10 µM (CCRF-CEM) [%] | activity at 10 µM (NCI-H460) [%] | activity at 10 µM (MOLT-4) [%] | activity at 10 µM (SK-MEL-28) [%] | activity at 10 µM (CAKI-1) [%] | activity at 10 µM (SK-MEL-5) [%] | activity at 10 µM (HOP-62) [%] | activity at 10 µM (A549/ATCC) [%] | activity at 10 µM (SF-539) [%] | activity at 10 µM (SR) [%] | activity at 10 µM (BT-549) [%] | activity at 10 µM (SNB-75) [%] | activity at 10 µM (MALME-3M) [%] | activity at 10 µM (HCT-15) [%] | activity at 10 µM (IGROV1) [%] | activity at 10 µM (NCI/ADR-RES) [%] | activity at 10 µM (MDA-MB-231/ATCC) [%] | activity at 10 µM (KM12) [%] | activity at 10 µM (NCI-H226) [%] | activity at 10 µM (SK-MEL-2) [%] | further results
1 | O=C(/C=C/c1ccc(F)cc1)c1ccc(-n2cc(CN3CCN(c4cc5c(cc4F)c(=O)c(C(=O)O)cn5C4CC4)CC3)nn2)cc1 [Compound 4e, (E)-1-cyclopropyl-6-fluoro-7–(4-((1–(4-(3-(4-fluorophenyl)acryloyl)phenyl)-1H-1,2,3-triazol-4-yl)methyl)piperazin-1-yl)-4-oxo-1,4-dihydroquinoline-3-carboxylic acid] | 20 | 32.5 | 31.8 | 68 | 36.9 | 79 | 67.3 | 82.2 | 27.9 | 7.11 | 32 | 68.1 | 89.2 | 63.4 | 39.6 | 92.1 | 65.3 | 32.9 | 81.7 | 89 | activity at 10 µM (ACHN): 88.5%; activity at 10 µM (SF-295): 81.2%; activity at 10 µM (UO-31): 62.8%; activity at 10 µM (M14): 60.9%; activity at 10 µM (SK-OV-3): 71.6%; activity at 10 µM (HOP-92): 50.3%; activity at 10 µM (OVCAR-3): 46.6%; activity at 10 µM (TK-10): 85.2%; activity at 10 µM (MCF7): 24.2%; activity at 10 µM (T-47D): 76.8%; activity at 10 µM [1]: 53.9%; IC50 (HCT116): 4.32 ± 0.98 µM; IC50 (Caco-2): 4.19 ± 1.13 µM; IC50 (HT-29): 8.67 ± 2.94 µM; activity at 10 µM (RPMI-8226): -24.6%; Growth Percent (RPMI-8226): -24.56%; Growth Percent (HCT-116): -10.26%; activity at 10 µM (HCT-116): -10.3%
2 | COc1cc(/C=C/C(=O)c2ccc(-n3cc(CN4CCN(c5cc6c(cc5F)c(=O)c(C(=O)O)cn6C5CC5)CC4)nn3)cc2)cc(OC)c1OC [Compound 4j, (E)-1-cyclopropyl-6-fluoro-4-oxo-7–(4-((1–(4-(3-(3,4,5-trimethoxyphenyl)acryloyl)phenyl)-1H-1,2,3-triazol-4-yl)methyl)piperazin-1-yl)-1,4-dihydroquinoline-3-carboxylic acid] | 3.05 | 53.1 | 10.5 | 34.6 | 60 | 50.9 | 38.7 | 15.7 | 7.09 | -12.4 | 51 | 65.5 | 57.5 | 33.8 | -24.8 | 82 | 55.4 | 8.81 | 32.4 | 97.4 | activity at 10 µM (SF-295): 67.5%; activity at 10 µM (UO-31): 43.5%; activity at 10 µM (M14): 28.2%; activity at 10 µM (SK-OV-3): 67.5%; activity at 10 µM (HOP-92): 81.6%; activity at 10 µM (OVCAR-3): -16.1%; activity at 10 µM (TK-10): 80%; activity at 10 µM (MCF7): 16.1%; activity at 10 µM (T-47D): 28.1%; activity at 10 µM [1]: 33.7%; Growth Percent ([1]; majority of cancer cell lines, 10 µM): 67.46 to −39.69%; IC50 (HCT116): 2.53 ± 0.31 µM; IC50 (Caco-2): 7.14 ± 2.48 µM; IC50 (HT-29): 13.2 ± 2.4 µM; activity at 10 µM (RPMI-8226): -15.8%; Growth Percent (RPMI-8226): -15.84%; Growth Percent (HCT-116): -39.51%; activity at 10 µM (HCT-116): -39.5%
